Values of other authors as cited in US20200337300A1, “GREASE-LIKE GEL FOR REPELLING INSECTS AND PREVENTING UNDESIRABLE BEHAVIOR IN HOOFED ANIMALS” (Pacific Tech Industries, Inc., priority 2010, published 2020).

Legend:
[1] = for solubility in organic solvents: most organic solvents
[2] = pungency of the pure capsaicinoid

SMILES	solubility in organic solvents [1]	solubility in water [1]	Scoville heat units [2]
C=CCN=C=S [Allyl isothiocyanate]	soluble in most organic solvents	slightly soluble in water	
COc1cc(CNC(=O)CCCC/C=C/C(C)C)ccc1O [Capsaicin, 8-methyl-N-vanillyl-6-nonenamide]			16,000,000 Scoville heat units
COc1cc(CNC(=O)CCCCC/C=C/C(C)C)ccc1O [Homocapsaicin]			8,600,000 Scoville heat units
COc1cc(CNC(=O)CCCCCCCC(C)C)ccc1O [Homodihydrocapsaicin]			8,600,000 Scoville heat units
C=CCS[S+]([O-])CC=C (stereo not shown) [allicin]	soluble in most organic solvents	slightly soluble in water	
